Several values for one entry are separate records, joined by “and”; a condition that tells them apart may be missing. Equal values may be shown once.
Experiments:
[1] = for kinematic viscosity / mass density: 101.33 kPa, Liquid; for kinematic viscosity: Capillary tube (Ostwald / Ubbelohde) method; for mass density: Vibrating tube method; for Normal melting temperature: Crystal, visual observation
[2] = refractive index (Na D-line) (dimensionless); conditions: 101.33 kPa, Liquid, Standard Abbe refractometry

COc1ccccc1 [anisole]
Conditions | kinematic viscosity, [1] [m2/s] | mass density, [1] | refractive index, [2]
288.15 K | 1.123e-06 | 996.56 kg/m3 | 1.5198
293.15 K | 1.041e-06 | 991.95 kg/m3 | 1.5169
298.15 K | 9.71e-07 | 989.42 kg/m3 and 989.09 kg/m3 | 1.5143
303.15 K | 8.99e-07 | 983.04 kg/m3 | 1.5117
308.15 K | 8.39e-07 | 978.34 kg/m3 | 1.5092
313.15 K | 7.89e-07 | 973.62 kg/m3 | 1.5063
318.15 K | 7.4e-07 | 969.99 kg/m3 | 1.5041

COC(=O)OC [dimethyl carbonate]
Conditions | kinematic viscosity, [1] [m2/s] | mass density, [1] [kg/m3] | refractive index, [2]
288.15 K | 6.05e-07 | 1077.16 | 1.371
293.15 K | 5.7e-07 | 1070.18 | 1.3688
298.15 K | 5.41e-07 | 1063.26 | 1.3664
303.15 K | 5.08e-07 | 1056.23 | 1.364
308.15 K | 4.76e-07 | 1049.85 | 1.3618
313.15 K | 4.56e-07 | 1043.04 | 1.3595
318.15 K | 4.33e-07 | 1036.51 | 1.357

Conditions | Normal melting temperature [°C]
[1] | 5.01

O=C(Oc1ccccc1)Oc1ccccc1 [diphenyl carbonate]
Conditions | mass density [kg/m3]
[1], 358.15 K | 1113.12

Conditions | Normal melting temperature
[1] | 80.81 °C and 81.81 °C

CO [methanol]
Conditions | kinematic viscosity, [1] [m2/s] | mass density, [1] | refractive index, [2]
288.15 K | 7.51e-07 | 796.5 kg/m3 | 1.3306
293.15 K | 7.03e-07 | 791.46 kg/m3 | 1.3285
298.15 K | 6.6e-07 | 786.59 kg/m3 and 786.69 kg/m3 | 1.3265
303.15 K | 6.21e-07 | 782.03 kg/m3 | 1.3245
308.15 K | 5.79e-07 | 777.29 kg/m3 | 1.3227
313.15 K | 5.49e-07 | 772.51 kg/m3 | 1.3208
318.15 K | 5.19e-07 | 767.69 kg/m3 | 1.3188

Conditions | Normal melting temperature [°C]
[1] | -98.00

COC(=O)Oc1ccccc1 [methyl phenyl carbonate]
Conditions | kinematic viscosity, [1] [m2/s] | mass density, [1] | refractive index, [2]
288.15 K | 5.143e-06 | 1153.93 kg/m3 | 1.4991
293.15 K | 4.275e-06 | 1148.74 kg/m3 | 1.4965
298.15 K | 3.665e-06 | 1143.24 kg/m3 and 1143.63 kg/m3 | 1.4942
303.15 K | 3.196e-06 | 1138.41 kg/m3 | 1.492
308.15 K | 2.816e-06 | 1133.26 kg/m3 | 1.4896
313.15 K | 2.486e-06 | 1128.11 kg/m3 | 1.4873
318.15 K | 2.235e-06 | 1122.97 kg/m3 | 1.4853

Conditions | Normal melting temperature [°C]
[1] | -31.00

Oc1ccccc1 [phenol]
Conditions | mass density [kg/m3]
[1], 313.15 K | 1058.51

Conditions | Normal melting temperature [°C]
[1] | 40.90

From the NIST ThermoML archive (doi:10.1016/j.fluid.2014.05.033)
